Paper PMC9299836 (eLife, 2022)

Experiments:
[1] = biological target: T1, mGluR2 (Mus musculus, UniProt Q14BI2, A548F); experiment: Single-molecule FRET (SiMPull) of azi-CRD: population histograms and state occupancy; conditions: azi-CRD, 5 μM modulator, fraction of total area;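 also: Cy3/Cy5-labelled receptor from HEK293T cell lysate captured on anti-FLAG surfaces, apparent FRET efficiency computed from donor and acceptor intensities with crosstalk correction, pooled into population histograms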
[2] = biological target: T1, mGluR2; experiment: smFRET of azi-CRD: cross-correlation of donor and acceptor intensities (CRD dynamics) and HMM transition density plots; conditions: for CRD dynamics by cross-correlation of donor and acceptor intensities: azi-CRD;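 as to all read-outs here: single detergent-solubilized receptors captured on antibody-coated flow cells via C-terminal FLAG-tag, imaged by smFRET, donor and acceptor intensity traces from three independent biological replicates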

T1 sequence (Q14BI2 19-872 A548F): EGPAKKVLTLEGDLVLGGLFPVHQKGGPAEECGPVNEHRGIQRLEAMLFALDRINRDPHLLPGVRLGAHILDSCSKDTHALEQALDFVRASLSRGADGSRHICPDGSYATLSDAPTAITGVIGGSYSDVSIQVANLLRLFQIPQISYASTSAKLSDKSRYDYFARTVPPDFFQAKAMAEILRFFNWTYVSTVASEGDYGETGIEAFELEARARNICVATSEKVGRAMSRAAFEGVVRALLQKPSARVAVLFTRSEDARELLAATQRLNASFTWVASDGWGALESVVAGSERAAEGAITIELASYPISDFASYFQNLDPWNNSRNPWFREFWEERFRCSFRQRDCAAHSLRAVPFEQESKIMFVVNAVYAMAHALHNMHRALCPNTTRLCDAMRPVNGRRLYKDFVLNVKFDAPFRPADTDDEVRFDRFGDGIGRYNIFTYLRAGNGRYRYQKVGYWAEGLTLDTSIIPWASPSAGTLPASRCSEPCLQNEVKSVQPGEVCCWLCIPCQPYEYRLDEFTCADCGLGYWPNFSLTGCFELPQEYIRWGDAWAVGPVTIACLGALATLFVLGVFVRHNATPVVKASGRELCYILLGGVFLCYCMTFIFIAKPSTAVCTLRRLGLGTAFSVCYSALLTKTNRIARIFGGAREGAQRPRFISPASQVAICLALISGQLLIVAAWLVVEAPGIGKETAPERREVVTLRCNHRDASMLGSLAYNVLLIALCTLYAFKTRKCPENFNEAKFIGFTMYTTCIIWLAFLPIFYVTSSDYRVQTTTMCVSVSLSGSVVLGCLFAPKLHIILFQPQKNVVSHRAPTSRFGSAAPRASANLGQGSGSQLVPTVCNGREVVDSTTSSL

Substance: MNI-137
- Mean occupancy, state 4 (active, FRET 0.87) ([1]; 15 μM glutamate): 0.01952
- Mean occupancy, state 1 (inactive, FRET 0.24) ([1]; 1000 μM glutamate): 0.00207
- Mean occupancy, state 2 (intermediate 1, FRET 0.38) ([1]; 1000 μM glutamate): 0.5597
- Mean occupancy, state 3 (intermediate 2, FRET 0.70) ([1]; 1000 μM glutamate): 0.331
- Mean occupancy, state 4 (active, FRET 0.87) ([1]; 1000 μM glutamate): 0.1072
- Cross Correlation, Mean ([2]; 0μM Glutamate + GPT/Pyruvate + 5μM MNI-137, Time 0.2 s): -0.028
- Cross Correlation, Mean ([2]; 0μM Glutamate + GPT/Pyruvate + 5μM MNI-137, Time 0.25 s): -0.03232
- Cross Correlation, Mean ([2]; 0μM Glutamate + GPT/Pyruvate + 5μM MNI-137, Time 0.3 s): -0.03245
- Cross Correlation, Mean ([2]; 0μM Glutamate + GPT/Pyruvate + 5μM MNI-137, Time 0.35 s): -0.03285
- Cross Correlation, Mean ([2]; 0μM Glutamate + GPT/Pyruvate + 5μM MNI-137, Time 0.4 s): -0.02992
- Cross Correlation, Mean ([2]; 0μM Glutamate + GPT/Pyruvate + 5μM MNI-137, Time 0.45 s): -0.02563
- Cross Correlation, Mean ([2]; 0μM Glutamate + GPT/Pyruvate + 5μM MNI-137, Time 0.5 s): -0.0232
- Cross Correlation, Mean ([2]; 0μM Glutamate + GPT/Pyruvate + 5μM MNI-137, Time 0.55 s): -0.0254
- Cross Correlation, Mean ([2]; 0μM Glutamate + GPT/Pyruvate + 5μM MNI-137, Time 0.6 s): -0.02539
- Cross Correlation, Mean ([2]; 0μM Glutamate + GPT/Pyruvate + 5μM MNI-137, Time 0.65 s): -0.02363
- Cross Correlation, Mean ([2]; 0μM Glutamate + GPT/Pyruvate + 5μM MNI-137, Time 0.7 s): -0.02361
- Cross Correlation, Mean ([2]; 0μM Glutamate + GPT/Pyruvate + 5μM MNI-137, Time 0.8 s): -0.02074
- Cross Correlation, Mean ([2]; 0μM Glutamate + GPT/Pyruvate + 5μM MNI-137, Time 0.85 s): -0.0233
- Cross Correlation, Mean ([2]; 0μM Glutamate + GPT/Pyruvate + 5μM MNI-137, Time 0.9 s): -0.02522
- Cross Correlation, Mean ([2]; 0μM Glutamate + GPT/Pyruvate + 5μM MNI-137, Time 0.95 s): -0.02254
- Cross Correlation, Mean ([2]; 0μM Glutamate + GPT/Pyruvate + 5μM MNI-137, Time 1 s): -0.02263
- Cross Correlation, Mean ([2]; 0μM Glutamate + GPT/Pyruvate + 5μM MNI-137, Time 1.05 s): -0.01654
- Cross Correlation, Mean ([2]; 0μM Glutamate + GPT/Pyruvate + 5μM MNI-137, Time 1.1 s): -0.01694
- Cross Correlation, Mean ([2]; 0μM Glutamate + GPT/Pyruvate + 5μM MNI-137, Time 1.15 s): -0.0245
- Cross Correlation, Mean ([2]; 0μM Glutamate + GPT/Pyruvate + 5μM MNI-137, Time 1.2 s): -0.02011
- Cross Correlation, Mean ([2]; 0μM Glutamate + GPT/Pyruvate + 5μM MNI-137, Time 1.25 s): -0.02479
- Cross Correlation, Mean ([2]; 0μM Glutamate + GPT/Pyruvate + 5μM MNI-137, Time 1.3 s): -0.01941
- Cross Correlation, Mean ([2]; 0μM Glutamate + GPT/Pyruvate + 5μM MNI-137, Time 1.35 s): -0.01897
- Cross Correlation, Mean ([2]; 0μM Glutamate + GPT/Pyruvate + 5μM MNI-137, Time 1.4 s): -0.02381
- Cross Correlation, Mean ([2]; 0μM Glutamate + GPT/Pyruvate + 5μM MNI-137, Time 1.45 s): -0.01493
- Cross Correlation, Mean ([2]; 0μM Glutamate + GPT/Pyruvate + 5μM MNI-137, Time 1.5 s): -0.01697
- Cross Correlation, Mean ([2]; 0μM Glutamate + GPT/Pyruvate + 5μM MNI-137, Time 1.6 s): -0.01709
- Cross Correlation, Mean ([2]; 0μM Glutamate + GPT/Pyruvate + 5μM MNI-137, Time 1.65 s): -0.01348
- Cross Correlation, Mean ([2]; 0μM Glutamate + GPT/Pyruvate + 5μM MNI-137, Time 1.7 s): -0.01427
- Cross Correlation, Mean ([2]; 0μM Glutamate + GPT/Pyruvate + 5μM MNI-137, Time 1.75 s): -0.0161
- Cross Correlation, Mean ([2]; 0μM Glutamate + GPT/Pyruvate + 5μM MNI-137, Time 1.8 s): -0.01106
- Cross Correlation, Mean ([2]; 0μM Glutamate + GPT/Pyruvate + 5μM MNI-137, Time 1.85 s): -0.00832
- Cross Correlation, Mean ([2]; 0μM Glutamate + GPT/Pyruvate + 5μM MNI-137, Time 1.9 s): -0.01466
- Cross Correlation, Mean ([2]; 15μM Glutamate + 5μM MNI-137, Time 0.2 s): -0.09437
- Cross Correlation, Mean ([2]; 15μM Glutamate + 5μM MNI-137, Time 0.25 s): -0.08281
- Cross Correlation, Mean ([2]; 15μM Glutamate + 5μM MNI-137, Time 0.3 s): -0.0732
- Cross Correlation, Mean ([2]; 15μM Glutamate + 5μM MNI-137, Time 0.35 s): -0.06697
- Cross Correlation, Mean ([2]; 15μM Glutamate + 5μM MNI-137, Time 0.4 s): -0.05965
- Cross Correlation, Mean ([2]; 15μM Glutamate + 5μM MNI-137, Time 0.45 s): -0.05857
- Cross Correlation, Mean ([2]; 15μM Glutamate + 5μM MNI-137, Time 0.5 s): -0.05707
- Cross Correlation, Mean ([2]; 15μM Glutamate + 5μM MNI-137, Time 0.55 s): -0.05428
- Cross Correlation, Mean ([2]; 15μM Glutamate + 5μM MNI-137, Time 0.6 s): -0.04785
- Cross Correlation, Mean ([2]; 15μM Glutamate + 5μM MNI-137, Time 0.65 s): -0.04876
- Cross Correlation, Mean ([2]; 15μM Glutamate + 5μM MNI-137, Time 0.7 s): -0.04192
- Cross Correlation, Mean ([2]; 15μM Glutamate + 5μM MNI-137, Time 0.75 s): -0.0438
- Cross Correlation, Mean ([2]; 15μM Glutamate + 5μM MNI-137, Time 0.8 s): -0.04286
- Cross Correlation, Mean ([2]; 15μM Glutamate + 5μM MNI-137, Time 0.85 s): -0.04147
- Cross Correlation, Mean ([2]; 15μM Glutamate + 5μM MNI-137, Time 0.9 s): -0.0389
- Cross Correlation, Mean ([2]; 15μM Glutamate + 5μM MNI-137, Time 0.95 s): -0.03855
- Cross Correlation, Mean ([2]; 15μM Glutamate + 5μM MNI-137, Time 1 s): -0.03542
- Cross Correlation, Mean ([2]; 15μM Glutamate + 5μM MNI-137, Time 1.05 s): -0.03118
- Cross Correlation, Mean ([2]; 15μM Glutamate + 5μM MNI-137, Time 1.1 s): -0.03249
- Cross Correlation, Mean ([2]; 15μM Glutamate + 5μM MNI-137, Time 1.15 s): -0.02794
- Cross Correlation, Mean ([2]; 15μM Glutamate + 5μM MNI-137, Time 1.2 s): -0.03365
- Cross Correlation, Mean ([2]; 15μM Glutamate + 5μM MNI-137, Time 1.25 s): -0.03207
- Cross Correlation, Mean ([2]; 15μM Glutamate + 5μM MNI-137, Time 1.3 s): -0.02844
- Cross Correlation, Mean ([2]; 15μM Glutamate + 5μM MNI-137, Time 1.35 s): -0.02868
- Cross Correlation, Mean ([2]; 15μM Glutamate + 5μM MNI-137, Time 1.4 s): -0.02437
- Cross Correlation, Mean ([2]; 15μM Glutamate + 5μM MNI-137, Time 1.45 s): -0.02342
- Cross Correlation, Mean ([2]; 15μM Glutamate + 5μM MNI-137, Time 1.55 s): -0.02529
- Cross Correlation, Mean ([2]; 15μM Glutamate + 5μM MNI-137, Time 1.6 s): -0.02454
- Cross Correlation, Mean ([2]; 15μM Glutamate + 5μM MNI-137, Time 1.65 s): -0.02035
- Cross Correlation, Mean ([2]; 15μM Glutamate + 5μM MNI-137, Time 1.75 s): -0.02381
- Cross Correlation, Mean ([2]; 15μM Glutamate + 5μM MNI-137, Time 1.8 s): -0.02039
- Cross Correlation, Mean ([2]; 15μM Glutamate + 5μM MNI-137, Time 1.85 s): -0.02364
- Cross Correlation, Mean ([2]; 15μM Glutamate + 5μM MNI-137, Time 1.9 s): -0.02018
- Cross Correlation, Mean ([2]; 15μM Glutamate + 5μM MNI-137, Time 1.95 s): -0.01877
- Cross Correlation, Mean ([2]; 1000μM Glutamate + 5μM MNI-137, Time 0.2 s): -0.2112
- Cross Correlation, Mean ([2]; 1000μM Glutamate + 5μM MNI-137, Time 0.25 s): -0.1919
- Cross Correlation, Mean ([2]; 1000μM Glutamate + 5μM MNI-137, Time 0.3 s): -0.1758
- Cross Correlation, Mean ([2]; 1000μM Glutamate + 5μM MNI-137, Time 0.35 s): -0.1629
- Cross Correlation, Mean ([2]; 1000μM Glutamate + 5μM MNI-137, Time 0.4 s): -0.1514
- Cross Correlation, Mean ([2]; 1000μM Glutamate + 5μM MNI-137, Time 0.45 s): -0.1426
- Cross Correlation, Mean ([2]; 1000μM Glutamate + 5μM MNI-137, Time 0.5 s): -0.1307
- Cross Correlation, Mean ([2]; 1000μM Glutamate + 5μM MNI-137, Time 0.55 s): -0.1241
- Cross Correlation, Mean ([2]; 1000μM Glutamate + 5μM MNI-137, Time 0.6 s): -0.1177
- Cross Correlation, Mean ([2]; 1000μM Glutamate + 5μM MNI-137, Time 0.65 s): -0.1093
- Cross Correlation, Mean ([2]; 1000μM Glutamate + 5μM MNI-137, Time 0.7 s): -0.1013
- Cross Correlation, Mean ([2]; 1000μM Glutamate + 5μM MNI-137, Time 0.75 s): -0.09952
- Cross Correlation, Mean ([2]; 1000μM Glutamate + 5μM MNI-137, Time 0.8 s): -0.09295
- Cross Correlation, Mean ([2]; 1000μM Glutamate + 5μM MNI-137, Time 0.85 s): -0.08726
- Cross Correlation, Mean ([2]; 1000μM Glutamate + 5μM MNI-137, Time 0.9 s): -0.08538
- Cross Correlation, Mean ([2]; 1000μM Glutamate + 5μM MNI-137, Time 0.95 s): -0.07938
- Cross Correlation, Mean ([2]; 1000μM Glutamate + 5μM MNI-137, Time 1 s): -0.07503
- Cross Correlation, Mean ([2]; 1000μM Glutamate + 5μM MNI-137, Time 1.05 s): -0.07213
- Cross Correlation, Mean ([2]; 1000μM Glutamate + 5μM MNI-137, Time 1.1 s): -0.06374
- Cross Correlation, Mean ([2]; 1000μM Glutamate + 5μM MNI-137, Time 1.15 s): -0.06369
- Cross Correlation, Mean ([2]; 1000μM Glutamate + 5μM MNI-137, Time 1.2 s): -0.0627
- Cross Correlation, Mean ([2]; 1000μM Glutamate + 5μM MNI-137, Time 1.3 s): -0.05443
- Cross Correlation, Mean ([2]; 1000μM Glutamate + 5μM MNI-137, Time 1.35 s): -0.05075
- Cross Correlation, Mean ([2]; 1000μM Glutamate + 5μM MNI-137, Time 1.4 s): -0.05008
- Cross Correlation, Mean ([2]; 1000μM Glutamate + 5μM MNI-137, Time 1.45 s): -0.0474
- Cross Correlation, Mean ([2]; 1000μM Glutamate + 5μM MNI-137, Time 1.5 s): -0.04472
- Cross Correlation, Mean ([2]; 1000μM Glutamate + 5μM MNI-137, Time 1.55 s): -0.04463
- Cross Correlation, Mean ([2]; 1000μM Glutamate + 5μM MNI-137, Time 1.65 s): -0.03966
- Cross Correlation, Mean ([2]; 1000μM Glutamate + 5μM MNI-137, Time 1.7 s): -0.03894
- Cross Correlation, Mean ([2]; 1000μM Glutamate + 5μM MNI-137, Time 1.75 s): -0.03942
- Cross Correlation, Mean ([2]; 1000μM Glutamate + 5μM MNI-137, Time 1.8 s): -0.03907
- Cross Correlation, Mean ([2]; 1000μM Glutamate + 5μM MNI-137, Time 1.9 s): -0.0321
- Cross Correlation, Mean ([2]; 1000μM Glutamate + 5μM MNI-137, Time 1.95 s): -0.034
- CRD dynamics by cross-correlation of donor and acceptor intensities ([2]; 5 μM modulator with 15 μM and 1 mM glutamate): glutamate concentration-dependent increase in the CRD dynamics
- CRD dynamics by cross-correlation of donor and acceptor intensities ([2]; 5 μM modulator, absence of glutamate): reduced CRD dynamics
